What was measured:
Assay in all cases: Test C preemergence
Type in all cases: in vivo
Nightshade = settings: scale 0 to 100, 0 no effect, 100 complete control
Sunflower [1] = settings: Rate 125 g/ha; scale 0 to 100, 0 no effect, 100 complete control
[2] = system: Surinam grass (Brachiaria decumbens); settings: for Plant response rating, Surinam grass: scale 0 to 100, 0 no effect, 100 complete control; for Plant response rating (0 to 100), Surinam grass: preemergence, visual evaluation after 12 to 14 days
Procedure, shortened: (§1)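 Compounds in non-phytotoxic solvent with surfactant applied preemergence to planted seeds and postemergence to plants at 1- to 4-leaf stage (2–18 cm). Kept in greenhouse 12–14 days, then visually rated against controls on a 0 (no effect) to 100 (complete control) scale.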

[3] = system: bermudagrass (Cynodon dactylon); settings: for Plant response rating, Bermudagrass: scale 0 to 100, 0 no effect, 100 complete control; for Plant response rating (0 to 100 where 0 is no effect and 100 is complete control), Bermudagrass: preemergence, visual evaluation after 12 to 14 days
Procedure, shortened: as §1

[4] = system: cocklebur (Xanthium strumarium); settings: for Plant response rating, Cocklebur: scale 0 to 100, 0 no effect, 100 complete control; for Plant response rating (0 to 100), Cocklebur: preemergence, visual evaluation after 12 to 14 days
Procedure, shortened: as §1

[5] = system: common ragweed (Ambrosia elatior); settings: for Plant response rating, Ragweed, Common: scale 0 to 100, 0 no effect, 100 complete control
Procedure, shortened: as §1

corn (Zea mays) = settings: for Plant response rating, Corn: scale 0 to 100, 0 no effect, 100 complete control; for Plant response rating (0 to 100), Corn: preemergence, visual evaluation after 12 to 14 days
Procedure, shortened: as §1

[6] = system: crabgrass (Digitaria sanguinalis); settings: for Plant response rating, Crabgrass: scale 0 to 100, 0 no effect, 100 complete control; for Plant response rating (0 to 100), Crabgrass: preemergence, visual evaluation after 12 to 14 days
Procedure, shortened: as §1

[7] = system: giant foxtail (Setaria faberii); settings: for Plant response rating, Foxtail, Giant: scale 0 to 100, 0 no effect, 100 complete control; for Plant response rating (0 to 100), Foxtail, Giant: preemergence, visual evaluation after 12 to 14 days
Procedure, shortened: as §1

[8] = system: goosegrass (Eleusine indica); settings: for Plant response rating, Goosegrass: scale 0 to 100, 0 no effect, 100 complete control; for Plant response rating (0 to 100), Goosegrass: preemergence, visual evaluation after 12 to 14 days
Procedure, shortened: as §1

[9] = system: johnsongrass (Sorghum halepense); settings: for Plant response rating, Johnsongrass: scale 0 to 100, 0 no effect, 100 complete control; for Plant response rating (0 to 100), Johnsongrass: preemergence, visual evaluation after 12 to 14 days
Procedure, shortened: as §1

kochia (Kochia scoparia) = settings: for Plant response rating, Kochia: scale 0 to 100, 0 no effect, 100 complete control; for Plant response rating (0 to 100), Kochia: preemergence, visual evaluation after 12 to 14 days
Procedure, shortened: as §1

[10] = system: lambsquarters (Chenopodium album); settings: for Plant response rating, Lambsquarters: scale 0 to 100, 0 no effect, 100 complete control
Procedure, shortened: as §1

[11] = system: morningglory (Ipomoea hederacea); settings: for Plant response rating, Morningglory: scale 0 to 100, 0 no effect, 100 complete control
Procedure, shortened: as §1

[12] = system: pigweed (Amaranthus retroflexus); settings: for Plant response rating, Pigweed: scale 0 to 100, 0 no effect, 100 complete control
Procedure, shortened: as §1

soybean (Glycine max) = settings: for Plant response rating, Soybean: scale 0 to 100, 0 no effect, 100 complete control
Procedure, shortened: as §1

[13] = system: velvetleaf (Abutilon theophrasti); settings: for Plant response rating, Velvetleaf: scale 0 to 100, 0 no effect, 100 complete control
Procedure, shortened: as §1

[14] = system: woolly cupgrass (Eriochloa villosa); settings: for Plant response rating, Cupgrass, Woolly: scale 0 to 100, 0 no effect, 100 complete control; for Plant response rating (0 to 100), Cupgrass, Woolly: preemergence, visual evaluation after 12 to 14 days
Procedure, shortened: as §1

[15] = system: yellow nutsedge (Cyperus esculentus); settings: for Plant response rating, Nutsedge: scale 0 to 100, 0 no effect, 100 complete control
Procedure, shortened: as §1

Sunflower [16] = settings: Rate 250 g/ha, scale 0 to 100, 0 no effect, 100 complete control
[17] = preemergence, Rate 500 g/ha, visual evaluation after 12 to 14 days

Cc1ccc(N2CCC(n3ccc(C(C)(C)C)n3)C2=O)cc1OC(F)F (stereo not drawn) [Compound 79]
Plant response rating, Nightshade (Nightshade; Rate 62 g/ha): 20 | Plant response rating, Nightshade (Nightshade; Rate 125 g/ha): 50 | Plant response rating, Nightshade (Nightshade; Rate 250 g/ha): 50 | Plant response rating, Sunflower (Sunflower [1]): 0 | Plant response rating, Surinam grass ([2]; Rate 62 g/ha): 0 | Plant response rating, Surinam grass ([2]; Rate 125 g/ha): 20 | Plant response rating (0 to 100), Surinam grass ([2]; Rate 250 g/ha): 60 | Plant response rating (0 to 100), Surinam grass ([2]; Rate 500 g/ha): 100 | Plant response rating, Bermudagrass ([3]; Rate 62 g/ha): 100 | Plant response rating, Bermudagrass ([3]; Rate 125 g/ha): 100 | Plant response rating (0 to 100 where 0 is no effect and 100 is complete control), Bermudagrass ([3]; Rate 250 g/ha): 100 | Plant response rating (0 to 100 where 0 is no effect and 100 is complete control), Bermudagrass ([3]; Rate 500 g/ha): 100 | Plant response rating, Cocklebur ([4]; Rate 62 g/ha): 0 | Plant response rating, Cocklebur ([4]; Rate 125 g/ha): 0 | Plant response rating (0 to 100), Cocklebur ([4]; Rate 250 g/ha): 0 | Plant response rating (0 to 100), Cocklebur ([4]; Rate 500 g/ha): 30 | Plant response rating, Ragweed, Common ([5]; Rate 125 g/ha): 100 | Plant response rating (0 to 100), Ragweed, Common [5, 17]: 100 | Plant response rating, Ragweed, Common ([5]; preemergence, Rate 250 g/ha): 100 | Plant response rating, Corn (corn (Zea mays); Rate 62 g/ha): 0 | Plant response rating, Corn (corn (Zea mays); Rate 125 g/ha): 0 | Plant response rating (0 to 100), Corn (corn (Zea mays); Rate 250 g/ha): 0 | Plant response rating (0 to 100), Corn (corn (Zea mays); Rate 500 g/ha): 0 | Plant response rating, Crabgrass ([6]; Rate 62 g/ha): 100 | Plant response rating, Crabgrass ([6]; Rate 125 g/ha): 100 | Plant response rating (0 to 100), Crabgrass ([6]; Rate 250 g/ha): 100 | Plant response rating (0 to 100), Crabgrass ([6]; Rate 500 g/ha): 100 | Plant response rating, Foxtail, Giant ([7]; Rate 62 g/ha): 0 | Plant response rating, Foxtail, Giant ([7]; Rate 125 g/ha): 0 | Plant response rating (0 to 100), Foxtail, Giant ([7]; Rate 250 g/ha): 0 | Plant response rating (0 to 100), Foxtail, Giant ([7]; Rate 500 g/ha): 0 | Plant response rating, Goosegrass ([8]; Rate 62 g/ha): 80 | Plant response rating, Goosegrass ([8]; Rate 125 g/ha): 90 | Plant response rating (0 to 100), Goosegrass ([8]; Rate 250 g/ha): 100 | Plant response rating (0 to 100), Goosegrass ([8]; Rate 500 g/ha): 100 | Plant response rating, Johnsongrass ([9]; Rate 62 g/ha): 0 | Plant response rating, Johnsongrass ([9]; Rate 125 g/ha): 0 | Plant response rating (0 to 100), Johnsongrass ([9]; Rate 250 g/ha): 0 | Plant response rating (0 to 100), Johnsongrass ([9]; Rate 500 g/ha): 0 | Plant response rating, Kochia (kochia (Kochia scoparia); Rate 62 g/ha): 100 | Plant response rating, Kochia (kochia (Kochia scoparia); Rate 125 g/ha): 100 | Plant response rating (0 to 100), Kochia (kochia (Kochia scoparia); Rate 250 g/ha): 100 | Plant response rating (0 to 100), Kochia (kochia (Kochia scoparia); Rate 500 g/ha): 100 | Plant response rating, Lambsquarters ([10]; Rate 62 g/ha): 100 | Plant response rating, Lambsquarters ([10]; Rate 125 g/ha): 100 | Plant response rating (0 to 100), Lambsquarters [10, 17]: 100 | Plant response rating, Lambsquarters ([10]; preemergence, Rate 250 g/ha): 100 | Plant response rating, Morningglory ([11]; Rate 62 g/ha): 0 | Plant response rating, Morningglory ([11]; Rate 125 g/ha): 0 | Plant response rating (0 to 100), Morningglory [11, 17]: 70 | Plant response rating, Morningglory ([11]; preemergence, Rate 250 g/ha): 30 | Plant response rating, Pigweed ([12]; Rate 125 g/ha): 10 | Plant response rating (0 to 100), Pigweed [12, 17]: 100 | Plant response rating, Pigweed ([12]; preemergence, Rate 250 g/ha): 20 | Plant response rating, Soybean (soybean (Glycine max); Rate 125 g/ha): 0 | Plant response rating (0 to 100), Soybean (soybean (Glycine max); [17]): 50 | Plant response rating, Soybean (soybean (Glycine max); preemergence, Rate 250 g/ha): 0 | Plant response rating, Velvetleaf ([13]; Rate 125 g/ha): 0 | Plant response rating (0 to 100), Velvetleaf [13, 17]: 50 | Plant response rating, Velvetleaf ([13]; preemergence, Rate 250 g/ha): 20 | Plant response rating, Cupgrass, Woolly ([14]; Rate 62 g/ha): 90 | Plant response rating, Cupgrass, Woolly ([14]; Rate 125 g/ha): 90 | Plant response rating (0 to 100), Cupgrass, Woolly ([14]; Rate 250 g/ha): 100 | Plant response rating (0 to 100), Cupgrass, Woolly ([14]; Rate 500 g/ha): 100 | Plant response rating, Nutsedge ([15]; Rate 62 g/ha): 0 | Plant response rating, Nutsedge ([15]; Rate 125 g/ha): 0 | Plant response rating (0 to 100), Nutsedge [15, 17]: 0 | Plant response rating, Nutsedge ([15]; preemergence, Rate 250 g/ha): 0 | Plant response rating, Sunflower (Sunflower [16]): 50

Source: patent US7138361B2, “Herbicidal heterocycles” (E. I. du Pont de Nemours and Company, priority 2000, dated 2006)
